Measured values from ChEMBL document CHEMBL1201862, “PubChem BioAssay data set” (2004).
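Exposure lasted 48 hours, with cells grown in 96-well plates and compounds tested at five concentrations. GI50 = concentration required for 50% inhibition of growth.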 The source made the active and inactive calls. No stated cut-off is given here; in the data, active = GI50 up to about 1.1 µM and inactive = higher.

What was measured:
Experiment in all cases: DTP human tumour cell line panel, 48 h
Hs-578T = test system: Hs-578T
MDA-N = test system: MDA-N
PC-3 = test system: PC-3
HCT-116 = test system: HCT-116
RPMI-8226 = test system: RPMI-8226
MDA-MB-231 = test system: MDA-MB-231
ACHN = test system: ACHN
A498 = test system: A498
DU-145 = test system: DU-145
SR = test system: SR
TK-10 = test system: TK-10
SN12C = test system: SN12C
SK-OV-3 = test system: SK-OV-3
CAKI-1 = test system: CAKI-1
MOLT-4 = test system: MOLT-4
NCI-H460 = test system: NCI-H460
U-251 = test system: U-251
NCI-H226 = test system: NCI-H226
RXF 393 = test system: RXF 393
A549 = test system: A549
SNB-19 = test system: SNB-19
SNB-75 = test system: SNB-75
UACC-257 = test system: UACC-257
SK-MEL-28 = test system: SK-MEL-28
HT-29 = test system: HT-29
NCI-H522 = test system: NCI-H522
EKVX = test system: EKVX
UACC-62 = test system: UACC-62
HL-60 = test system: HL-60
NCI/ADR-RES = test system: NCI/ADR-RES
HOP-92 = test system: HOP-92
MCF7 = test system: MCF7
BT-549 = test system: BT-549
MDA-MB-435 = test system: MDA-MB-435
OVCAR-8 = test system: OVCAR-8
IGROV-1 = test system: IGROV-1
M14 = test system: M14
LOX IMVI = test system: LOX IMVI
SF-295 = test system: SF-295
KM12 = test system: KM12
SF-539 = test system: SF-539
SK-MEL-5 = test system: SK-MEL-5
UO-31 = test system: UO-31
786-0 = test system: 786-0
Malme-3M = test system: Malme-3M
NCI-H23 = test system: NCI-H23
CCRF-CEM = test system: CCRF-CEM
SK-MEL-2 = test system: SK-MEL-2
OVCAR-4 = test system: OVCAR-4
HCC 2998 = test system: HCC 2998
K562 = test system: K562
COLO 205 = test system: COLO 205
HOP-62 = test system: HOP-62
HCT-15 = test system: HCT-15
SF-268 = test system: SF-268
SW-620 = test system: SW-620
OVCAR-5 = test system: OVCAR-5
OVCAR-3 = test system: OVCAR-3
T47D = test system: T47D

With `CCOC(=O)c1c(NC(=O)c2cccs2)sc2c1CCCC2` as the molecule, how does the GI50 (Hs-578T) read?
Its GI50 is 27.6 µM (inactive).

And the GI50 (MDA-N)?
The GI50 was > 100 µM (inactive).

And the GI50 (PC-3)?
Its GI50 is 54.8 µM (inactive).

What about the GI50 (HCT-116) of the same molecule?
Its GI50 is 46.9 µM (inactive).

What about the GI50 (RPMI-8226) of the same molecule?
The GI50 was > 100 µM (inactive).

What about the GI50 (MDA-MB-231) of the same molecule?
Its GI50 is 24.6 µM (inactive).

And the GI50 (ACHN)?
Its GI50 is > 68.1 µM (inactive).

What about the GI50 (A498) of the same molecule?
Its GI50 is 24.3 µM (inactive).

And the GI50 (DU-145)?
The GI50 was > 80.4 µM (inactive).

What about the GI50 (SR) of the same molecule?
The GI50 was > 80.9 µM (inactive).

And the GI50 (TK-10)?
Its GI50 is 45.8 µM (inactive).

What about the GI50 (SN12C) of the same molecule?
Its GI50 is > 90.4 µM (inactive).

What about the GI50 (SK-OV-3) of the same molecule?
The GI50 was 25.5 µM (inactive).

And the GI50 (CAKI-1)?
The GI50 was 60.4 µM (inactive).

What about the GI50 (MOLT-4) of the same molecule?
The GI50 was > 100 µM (inactive).

What about the GI50 (NCI-H460) of the same molecule?
Its GI50 is > 88.9 µM (inactive).

And the GI50 (U-251)?
The GI50 was 28.1 µM (inactive).

And the GI50 (NCI-H226)?
Its GI50 is > 38.6 µM (inactive).

And the GI50 (RXF 393)?
The GI50 was 12.7 µM (inactive).

And the GI50 (A549)?
Its GI50 is 55.5 µM (inactive).

And the GI50 (SNB-19)?
Its GI50 is 30.1 µM (inactive).

And the GI50 (SNB-75)?
The GI50 was 5.68 µM (inactive).

And the GI50 (UACC-257)?
Its GI50 is > 100 µM (inactive).

And the GI50 (SK-MEL-28)?
Its GI50 is > 100 µM (inactive).

What about the GI50 (HT-29) of the same molecule?
The GI50 was > 100 µM (inactive).

What about the GI50 (NCI-H522) of the same molecule?
Its GI50 is 39.9 µM (inactive).

What about the GI50 (EKVX) of the same molecule?
Its GI50 is 54.8 µM (inactive).

And the GI50 (UACC-62)?
The GI50 was 52.1 µM (inactive).

What about the GI50 (HL-60) of the same molecule?
The GI50 was > 100 µM (inactive).

What about the GI50 (NCI/ADR-RES) of the same molecule?
Its GI50 is > 100 µM (inactive).

What about the GI50 (HOP-92) of the same molecule?
Its GI50 is 43.3 µM (inactive).

And the GI50 (MCF7)?
Its GI50 is > 79.6 µM (inactive).

And the GI50 (BT-549)?
The GI50 was 58.7 µM (inactive).

And the GI50 (MDA-MB-435)?
The GI50 was > 100 µM (inactive).

And the GI50 (OVCAR-8)?
Its GI50 is 61.9 µM (inactive).

And the GI50 (IGROV-1)?
Its GI50 is 31.3 µM (inactive).

What about the GI50 (M14) of the same molecule?
The GI50 was > 100 µM (inactive).

What about the GI50 (LOX IMVI) of the same molecule?
Its GI50 is > 100 µM (inactive).

And the GI50 (SF-295)?
Its GI50 is 27.3 µM (inactive).

What about the GI50 (KM12) of the same molecule?
Its GI50 is > 100 µM (inactive).

And the GI50 (SF-539)?
Its GI50 is 24.4 µM (inactive).

And the GI50 (SK-MEL-5)?
Its GI50 is > 100 µM (inactive).

And the GI50 (UO-31)?
The GI50 was > 63.1 µM (inactive).

And the GI50 (786-0)?
Its GI50 is 34.8 µM (inactive).

What about the GI50 (Malme-3M) of the same molecule?
Its GI50 is 29 µM (inactive).

And the GI50 (NCI-H23)?
Its GI50 is 48.3 µM (inactive).

And the GI50 (CCRF-CEM)?
The GI50 was > 100 µM (inactive).

And the GI50 (SK-MEL-2)?
The GI50 was 42 µM (inactive).

What about the GI50 (OVCAR-4) of the same molecule?
The GI50 was 60.3 µM (inactive).

And the GI50 (HCC 2998)?
Its GI50 is > 100 µM (inactive).

And the GI50 (K562)?
The GI50 was > 100 µM (inactive).

What about the GI50 (COLO 205) of the same molecule?
Its GI50 is > 100 µM (inactive).

What about the GI50 (HOP-62) of the same molecule?
Its GI50 is 21.8 µM (inactive).

And the GI50 (HCT-15)?
The GI50 was over 100 µM.

What about the GI50 (SF-268) of the same molecule?
Its GI50 is 28.1 µM (inactive).

What about the GI50 (SW-620) of the same molecule?
Its GI50 is > 100 µM (inactive).

What about the GI50 (OVCAR-5) of the same molecule?
The GI50 was 35 µM (inactive).

What about the GI50 (OVCAR-3) of the same molecule?
Its GI50 is 46.3 µM (inactive).

And the GI50 (T47D)?
The GI50 was 30.6 µM (inactive).
